We go through eight compounds from patent US20250136722A1, “CYTOTOXICITY TARGETING CHIMERAS” (GLAXOSMITHKLINE INTELLECTUAL PROPERTY DEVELOPMENT LIMITED, priority 2021, published 2025).

Where a name gives a salt, the structure may show the parent alone.

The target of the assay is T1, CHOK1 cells engineered to overexpress human CCR2 (Homo sapiens, UniProt P41597).
T1 construct: expressed in transfected cells; host or cells: CHOK1 cells
As to the kind of experiment: Antibody dependent cellular cytotoxicity (ADCC) reporter assay (Example 199). Format: cell-based. To be noted: with anti-cotinine antibody SEQ ID NO: 11/12; CHOK1-human CCR2 target cells, Jurkat FcγRIIIa NFAT-luciferase reporter cells; 12-18 hours; read-out: ADCC Reporter Assay pEC50 (converted). The procedure: An antibody dependent cellular cytoxicity reporter assay was conducted using the following four assay components: (i) ARM compound of Formula (I) targeting CCR2 (concentrations ranging from 1 pM to 10 μM) (ii) anti-cotinine antibody having a heavy chain sequence of SEQ ID NO: 11 and a light chain sequence of SEQ ID NO: 12 (rabbit variable region with human IgG1 Fc domain containing a DE mutation (S239D/1332E)) (concentrations ranging from 0.01 μg/mL to 200 μg/mL); (iii) target cells: CHOK1 cells engineered to overexpress either human CCR2 (typically 1000-20,000 cells per well) and (iv) reporter cells: Jurkat cells engineered to express FcγRIIIa with the reporter gene luciferase under the control of the NFAT promoter (typically 3000-75,000 cells per well). Reagents were combined in a final volume of 20 μL in a 384-well tissue culture treated plate. All four assay components were incubated together for about 12-18 hours. Thereafter, BioGlo Detection reagent (Promega) was added to the wells to lyse the cells and provide a substrate for the luciferase reporter protein. Luminescence signal was measured on a microplate reader and signal:background was calculated by dividing the signal of a test well by the signal obtained when no heterobivalent compound of Formula (I) was added. EC50 calculations were done using Graphpad Prism Software, specifically a nonlinear regression curve fit (Y=Bottom+(Top−Bottom)/(1+10^((Log EC50−X)*HillSlope))).
ARMs compounds of Formula (I) of the invention were tested for ADCC activity in the above assay in or more experimental runs and the results are shown in Table 3 below. Potency of the compounds of Formula (I) of the invention is reported as a pEC50 value. The pEC50 value is the negative log of the EC50 value, wherein the EC50 value is the half maximal effective concentration measured in molar (M). For compounds tested in more than one experimental run, the pEC50 value is reported as an average.
For the compound `CC(C)N(C)[C@@H]1CC[C@H](N2CC[C@H](Nc3ncnc4ccc(C(F)(F)F)cc34)C2=O)[C@H](NC(=O)CCCN2CCC3(CCC(C(=O)NCCNC(=O)[C@H]4CC(=O)N(C)[C@@H]4c4cccnc4)CC3)CC2)C1` [Example 183, 3-(4-(((1R,2S,5R)-5-(Isopropyl(methyl)amino)-2-((S)-2-oxo-3-((6-(trifluoromethyl)quinazolin-4-yl)amino)pyrrolidin-1-yl)cyclohexyl)amino)-4-oxobutyl)-N-(2-((2S,3S)-1-methyl-5-oxo-2-(pyridin-3-yl)pyrrolidine-3-carboxamido)ethyl)-3-azaspiro[5.5]undecane-9-carboxamide, 3 Formic acid salt], the EC50 was 0.501 nM.
Under `CC(C)N(C)[C@@H]1CC[C@H](N2CC[C@H](Nc3ncnc4ccc(C(F)(F)F)cc34)C2=O)[C@H](NC(=O)c2ccnc(NCCOCCOCCOCCOCCNC(=O)[C@H]3CC(=O)N(C)[C@@H]3c3cccnc3)c2)C1` [Example 126] stands 1.58 nM; under `CC(C)N(C)[C@@H]1CC[C@H](N2CC[C@H](Nc3ncnc4ccc(C(F)(F)F)cc34)C2=O)[C@H](NC(=O)[C@H]2CC[C@H](c3ccc(C(=O)NCCOCCOCCNC(=O)[C@H]4CC(=O)N(C)[C@@H]4c4cccnc4)cn3)CC2)C1` [Example 139, 6-((1R,4r)-4-(((1R,2S,5R)-5-(Isopropyl(methyl)amino)-2-((S)-2-oxo-3-((6-(trifluoromethyl)quinazolin-4-yl)amino)pyrrolidin-1-yl)cyclohexyl)carbamoyl)cyclohexyl)-N-(2-(2-(2-((2S,3S)-1-methyl-5-oxo-2-(pyridin-3-yl)pyrrolidine-3-carboxamido)ethoxy)ethoxy)ethyl)nicotinamide], 3.98 nM.
As for `CC(C)N(C)[C@@H]1CC[C@H](N2CC[C@H](Nc3ncnc4ccc(C(F)(F)F)cc34)C2=O)[C@H](NC(=O)[C@H]2CC[C@H](C3CCN(CCOCCOCCNC(=O)[C@H]4CC(=O)N(C)[C@@H]4c4cccnc4)CC3)CC2)C1` [Example 189, (2S,3S)-N-(2-(2-(2-(4-((1R,4r)-4-(((1R,2S,5R)-5-(Isopropyl(methyl)amino)-2-((S)-2-oxo-3-((6-(trifluoromethyl)quinazolin-4-yl)amino)pyrrolidin-1-yl)cyclohexyl)carbamoyl)cyclohexyl)piperidin-1-yl)ethoxy)ethoxy)ethyl)-1-methyl-5-oxo-2-(pyridin-3-yl)pyrrolidine-3-carboxamide], the figure is 6.31 nM; as for `CC(C)N(C)[C@@H]1CC[C@H](N2CC[C@H](Nc3ncnc4ccc(C(F)(F)F)cc34)C2=O)[C@H](NC(=O)c2ccc([C@H]3CC[C@@H](C(=O)NCCOCCOCCNC(=O)[C@H]4CC(=O)N(C)[C@@H]4c4cccnc4)CC3)cc2)C1` [Example 133], 5.01 nM; as for `CC(C)N(C)[C@@H]1CC[C@H](N2CC[C@H](Nc3ncnc4ccc(C(F)(F)F)cc34)C2=O)[C@H](NC(=O)[C@H]2CC[C@H](N3CCN(CCCCCCCCNC(=O)[C@H]4CC(=O)N(C)[C@@H]4c4cccnc4)CC3)CC2)C1` [Example 146], 0.251 nM.
As for `CC(C)N(C)[C@@H]1CC[C@H](N2CC[C@H](Nc3ncnc4ccc(C(F)(F)F)cc34)C2=O)[C@H](NC(=O)C2CCN(c3cnc(NCCOCCOCCNC(=O)[C@H]4CC(=O)N(C)[C@@H]4c4cccnc4)cn3)CC2)C1` [Example 162, N-((1R,2S,5R)-5-(Isopropyl(methyl)amino)-2-((S)-2-oxo-3-((6-(trifluoromethyl)quinazolin-4-yl)amino)pyrrolidin-1-yl)cyclohexyl)-1-(5-((2-(2-(2-((2S,3S)-1-methyl-5-oxo-2-(pyridin-3-yl)pyrrolidine-3-carboxamido)ethoxy)ethoxy)ethyl)amino)pyrazin-2-yl)piperidine-4-carboxamide], the figure is 1.58 nM; as for `CC(C)N(C)[C@@H]1CC[C@H](N2CC[C@H](Nc3ncnc4ccc(C(F)(F)F)cc34)C2=O)[C@H](NC(=O)[C@H]2CC[C@@H](N3CCC(C(=O)NCCOCCOCCNC(=O)[C@H]4CC(=O)N(C)[C@@H]4c4cccnc4)CC3)CC2)C1` [Example 134], 0.0631 nM.
